The values below come from publication PMC3877285, “A New Strategy for Enhancing the Oral Bioavailability of Drugs with Poor Water-Solubility and Low Liposolubility Based on Phospholipid Complex and Supersaturated SEDDS” (PLoS ONE, 2013).

Where “and” joins values, the source holds several entries; their conditions need not be identical. Equal entries are not always repeated.

Data set [1] in a line: In vitro lipolysis study. Format: in vitro ADME. The conditions noted are these: lipolysis medium pH 6.5, pancreatic lipase, 37°C, 20 mg scutellarin equivalent, n = 3. The procedure: In vitro lipolysis studies were performed as previously described, [22] with minor modifications. Briefly, lipolysis medium was prepared in advance, containing 5 mM bile salt, 2 mM trizma maleate buffer, 1.25 mM phosphatidyl choline, and 150 mM sodium chloride, and was adjusted to pH 6.5 with 0.1 M NaOH. Then according to the single-dosage of commercial oral solution detailed as 70 mg scutellarin administrated into 900 mL GI medium, scutellarin powder, SPC, conventional SEDDS and super-SEDDS with a dose of 20 mg (equivalent to scutellarin) were dispersed in 250 mL warmed lipolysis medium (37°C), with a stirring rate of 100 rpm. After that, lipolysis was initiated by adding 50 mL freshly prepared pancreatic lipase solution (2000 TBU/mL, pH 6.5, 37°C), then controlled by constantly pumping 0.15 M CaCl2 with a rate of 0.25 mL/min. Over the lipolysis period, pH value was maintained at 6.5 by a pH-stat device (902 Titrando, Metrohm, Switzerland). At pre-determined time intervals (5, 10, 20, 30, 45, 60, 90, 120 min), 5 mL digested medium was taken and filtered by 0.45 µm polypropylene membrane. The filtered samples were immediately diluted 10 times with acetonitrile to stop lipolysis and induce protein precipitation. At last, the diluted samples were centrifuged at 10,000 rpm for 10 min (Centrifuge 5810R, Eppendorf, Germany), and subsequently analyzed by HPLC (as mentioned later).

Data set [2] can be described thus: Ex vivo intestinal absorption, everted intestinal sac. Format: in vitro ADME, Sprague-Dawley (SD) rats. The conditions noted are these: everted rat jejunum sac, 50 µg/mL scutellarin. The method, then:
An everted intestinal sac experiment, modified according to the method previously described, was adopted to evaluate the ex vivo intestinal absorption of scutellarin. Kreb-Ringer’s (K–R) solution, containing 342.0 mM NaCl, 6.7 mM KCl, 5.9 mM CaCl2·2H2O, 5.3 mM MgCl2, 59.5 mM NaHCO3, 2.1 mM NaH2PO4 and 5.5 mM glucose, was prepared in advance. Half was cooled in 4°C refrigerator and the rest was warmed in a 37°C water bath. Scutellarin powder, SPC, conventional SEDDS and Super-SEDDS were dispersed in warmed K–R solution with a concentration of 50 µg/mL scutellarin, approximate to the lowest released concentration of drug during the lipolysis test. Male Sprague-Dawley (SD) rats were fasted overnight and then anesthetized with an intraperitoneal injection of chloral hydrated (10%, w/v) at a dose of 0.4 mL per 100 g. After dissection of the abdominal wall, the jejunum (21 cm from the pylorus) was carefully isolated without any mesentery, clipped into segments of 10 cm, and quickly rinsed in cooled K–R solution. […] After the tests, the length and width of the intestinal segments were measured for the calculation of uptake amount per unit area.

The nature of data set [3]: In vivo pharmacokinetics after oral dosing. The note with it: male, Sprague-Dawley, rat, plasma, 40 mg/kg equivalent to scutellarin, SD rats, n = 5, mean ± SD. The procedure: 20 male SD rats (300∼350 g) were fasted but allowed free access to water for 12 h, then divided randomly into 4 groups for the pharmacokinetics experiments of scutellarin powder, SPC, conventional SEDDS and Super-SEDDS. In order to avoid failure detection of plasma drug, the various formulations were orally administrated to rats at a dose of 40 mg/kg, according to the highest dosage of commercial oral solution, with a ceiling volume of 10 mL/kg when dispersed by purified water. The blood samples of 0.5 mL were collected in a 1.5 mL heparin treated EP tube from the orbital venous prior to the dose and at 0.5, 1, 2, 3, 4, 5, 6, 8, 10, 12, 24 and 36 h after the dose. The plasma was immediately isolated from whole blood by centrifugation (4000 rpm, 10 min) at room temperature and then stored in a −80°C freezer until analysis.
An HPLC analysis system (HP 1100 series, Agilent Technologies, Wilmington, Germany) of a quaternary pump, an autosampler and a UV detector with an ODS-C18 column (250 mm×4.6 mm i.d., Sepax Technologies Inc., Delaware, USA), was used for the determination of scutellarin. The mobile phase was a mixture of methanol, acetonitrile and 50 mM KH2PO4, at a ratio of 22∶15:63 (v/v/v), with pH of 2.5 adjusted by phosphoric acid. The detection was carried out at a wavelength of 335 nm, with a flow rate of 1.0 mL/min at room temperature.
200 µL of thawed plasma was removed to a 10 mL EP tube. 50 µL of internal standard working solution (20 µg/mL of rutin in methanol) was added and subsequently acidified by 100 µL of phosphoric acid (10 wt %) for 10 min. Then, 3 mL of ethyl acetate was infused for extracting scutellarin from plasma. After 30 min vortex, samples were centrifuged at 4000 rpm for 10 min, and the isolated supernatant was concentrated under nitrogen gas flow in bath of 40°C. Before HPLC detection, it needed to be re-dissolved by 100 µL of HPLC mobile phase and centrifuged at 10,000 rpm for 5 min. The whole analytical methodology including plasma treatment and HPLC detection was validated by accuracy and precision (see Table 2) as previously described.
The plasma data was analyzed in batches by DAS 2.0 (Mathematical Pharmacology Professional Committee of China, Shanghai, China). Peak plasma concentration (Cmax) and the time to reach Cmax (Tmax) were based on measured values. Area under the curve (AUC0-t) was calculated via a trapezoidal area method. […] All values were expressed as the mean ± standard deviation. The significant differences between each group were determined by one way analysis of variance (ANOVA) using the statistical package for social sciences software (SPSS® version 17.0, SPSS Inc., Shanghai, China), with the significance defined as p<0.05 and high significance as p<0.001.

On the set-up of data set [4]: method as in PMID 16269273. The note with it: cited from earlier work.

On to `O=C(O)[C@H]1O[C@@H](Oc2cc3oc(-c4ccc(O)cc4)cc(=O)c3c(O)c2O)[C@H](O)[C@@H](O)[C@@H]1O` [Scutellarin powder, Scutellarin], for which the cumulative dissolution percentage in data set [1] was 70% and 70.1±3.2%. Also, in data set [2], the “intestinal absorption (cumulative)” value is reported as 0.04 µg/cm^2. Besides, in data set [3], the AUC(0-t) was 2670 ± 404 ng·h/mL, the Cmax turned out to be 178 ± 35 ng/mL and the Tmax is 5.2 ± 0.8 h. In data set [3] (read-out: T1/2z (converted)), the half-life was 34.8 ± 22.8 h. Moreover, the pKa in data set [4] is given as 3.29.
